# Measured values taken from patent US10179761B2, “Compounds, pharmaceutical composition and their use in treating neurodegenerative diseases” (UNIVERSITE DE LILLE 2 DROIT ET SANTE, priority 2014, dated 2019).
# Entries after “also recorded” stand apart in the source; their conditions may differ.
# Columns and labels:
# Male Swiss mice = assay: Dizocilpine-induced learning deficits: spontaneous alternation in the Y-maze; assay type: in vivo
# Experimental: The activity of compound 3.1.10 was evaluated on the prevention of the dizocilpine-induced learning deficits measured using two behavioral tests. The present experiment tested if its anti-amnesic activity could be blocked by pretreatment with the reference sigma-1 receptor antagonist NE-100.
# • Sixty (60) mice were used. Behavioral testing started one week after the arrival of the animals in the AMYLGEN animal facility. • 5 treatment groups were designed and used as follows:
# • Vehicle 1 was physiological saline for dizocilpine, DMSO 2% in water for compound 3.1.10 • Animals were used at day 1 in the Y-maze test and at days 2 and 3 in the passive avoidance test, with training at day 2 and retention at day 3. • Test compounds, compound 3.1.10 and/or NE-100 were administered 10 min before dizocilpine (at 0.15 mg/kg i.p.) or vehicle. • Dizocilpine or vehicle 1 was administered 20 min before the Y-maze test session on day 1. • Dizocilpine or vehicle 1 was administered 20 min before the passive avoidance training session on day 2. Drugs were not injected before the retention session on day 3. • The whole experiment program was performed in a single serie experiment. • Treatments were randomized. 2.1.2. Animals
# Male Swiss mice, 6 weeks old and weighing 30-35 g, from JANVIER (Saint Berthevin, France), were housed in groups with access to food and water ad libitum, except during experiments. They were kept in a temperature and humidity controlled animal facility on a 12 h/12 h light:dark cycle (lights on at 7:00 am). […]
# Animals were tested for spontaneous alternation performance in the Y-maze, an index of spatial working memory. […] The number of maximum alternations was therefore the total number of arm entries minus two and the percentage of alternation was calculated as: (actual alternations/maximum alternations)×100. […]
# All values, except passive avoidance latencies, were expressed as mean±S.E.M. Statistical analyses were performed using two-way ANOVA (F value), with genotype and peptide treatment as independent factors, followed by a Dunn's post-hoc multiple comparison test.
# SJL/J mice = assay: EAE model, curative treatment; assay type: in vivo; settings: p.o. from onset of EAE (grade 2) for 14 days, 0.5 or 1 mg/kg; followed 70 days; FIG. 4
# Source text: Animals. SJL/J mice were purchased from Janvier (Le Genest-St-Isle, France) and bred under conventional barrier protection at the Pasteur Institute (Lille, France). All experiment protocols and procedures were in compliance with the European Communities Council Directives of 24 Nov. 1986 (86/609/EEC) and were approved by the local ethical committee (CEEA 102009R). Efforts were made to minimize the number of animals used and their suffering. Animals that reached severe hind limb paresis (clinical grade 3) were isolated, and hydration and food access were facilitated.
# EAE induction and treatment. The method of EAE induction was similar to previously published methods (Lee-Chang et al., Immunol Lett. 2011 Mar. 30; 135(1-2):108-17). […]
# Body weight and clinical signs of EAE were monitored daily. The severity of clinical symptoms was scored based on a standard neurological scoring system for EAE, as follows: grade 0, no disease; grade 1, moderate tail hypotonia and/or slight clumsy gait; grade 2, tail atony and/or clumsy gait; grade 3, severe hind limb paresis; grade 4, paraplegia; grade 5, tetraplegia. […]
# σ1 receptors = σ1 receptors (Homo sapiens (Human), UniProt Q99720); assay: σ1 binding assay, Jurkat cell membranes, [3H](+)-pentazocine; settings: hydrochloride salts; mean of 2 or 3 independent experiments; Ki from IC50 (Cheng-Prusoff); read-out: Sigma 1 Ki
# Sequence of σ1 receptors (Q99720 whole entry): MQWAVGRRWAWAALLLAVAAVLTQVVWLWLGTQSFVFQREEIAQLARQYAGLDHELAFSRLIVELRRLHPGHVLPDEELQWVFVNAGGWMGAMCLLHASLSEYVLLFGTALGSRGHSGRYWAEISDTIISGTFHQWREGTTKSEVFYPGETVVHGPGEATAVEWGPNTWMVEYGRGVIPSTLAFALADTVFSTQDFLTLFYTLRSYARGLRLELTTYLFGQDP
compound,measurement,setting,value
"CN(CCCNC(=O)c1ccc(Cl)cc1)Cc1ccccc1 [Compound 3.1.10, N-[3-(benzylmethylamino)propyl]-4-chlorobenzamide]","dizocilpine-induced learning deficits, Y-maze test","Male Swiss mice; 0.5 mg/kg i.p., 10 min before dizocilpine 0.15 mg/kg i.p.",significantly attenuated
same,"beneficial effect of compound 3.1.10 with NE-100, Y-maze test",Male Swiss mice; 3.1.10 0.5 mg/kg + NE-100 3 mg/kg + dizocilpine 0.15 mg/kg i.p.,prevented by treatment with the sigma-1 antagonist NE-100
same,"EAE clinical course, curative treatment",SJL/J mice,Amelioration of EAE; also recorded: alleviating the symptoms of EAE
same,Ki,σ1 receptors,3.2 nM
